Measurements as given in US20130012466A1 (priority 2006, published 2013).
Read-outs that look alike come from different tables or passages of the source.

Tests used:
[1] = test system: Hep3B; experiment: Cytotoxicity assay (cell titer-glo and calcein AM), Hep3B; settings: Hep 3B, % error in parentheses
[2] = test system: NCI-H460; experiment: Cytotoxicity assay (cell titer-glo and calcein AM), NCI-H460; settings: NCI-H460, % error in parentheses
[3] = test system: A549; experiment: Cytotoxicity assay (cell titer-glo and calcein AM), A549; settings: A549, % error in parentheses
[4] = test system: MCF7; experiment: Cytotoxicity assay (cell titer-glo and calcein AM), MCF7
[5] = test system: SF-268; experiment: Cytotoxicity assay (cell titer-glo and calcein AM), SF-268; settings: SF-268, % error in parentheses
[6] = test system: mouse mammary normal epithelial control cell line; experiment: Cytotoxicity assay, normal control cell line
[7] = test system: SK-OV-3; experiment: Cytotoxicity assay (cell titer-glo and calcein AM), SK-OV-3; settings: SK-OV-3, % error in parentheses
[8] = test system: ADR-RES; experiment: Cytotoxicity assay (cell titer-glo and calcein AM), ADR-RES; settings: NCI/ADR RES, % error in parentheses
[9] = test system: Du145; experiment: Cytotoxicity assay (cell titer-glo and calcein AM), Du145; settings: Du145, % error in parentheses
[10] = read-out: Cytotoxicity IC50, Hep 3B, CTG, CTG (cell titer-glo) readout
[11] = read-out: Cytotoxicity IC50, Hep 3B, calcein, calcein AM readout
[12] = read-out: Cytotoxicity IC50, NCI-H460, CTG, CTG (cell titer-glo) readout
[13] = read-out: Cytotoxicity IC50, NCI-H460, calcein, calcein AM readout
[14] = read-out: Cytotoxicity IC50, A549, CTG, CTG (cell titer-glo) readout
[15] = read-out: Cytotoxicity IC50, A549, calcein, calcein AM readout
[16] = read-out: Cytotoxicity IC50, MCF7, CTG, CTG (cell titer-glo) readout, % error in parentheses
[17] = read-out: Cytotoxicity IC50, MCF7, calcein, calcein AM readout, % error in parentheses
[18] = read-out: Cytotoxicity IC50, SF-268, CTG, CTG (cell titer-glo) readout
[19] = read-out: Cytotoxicity IC50, SF-268, calcein, calcein AM readout
[20] = read-out: Cytotoxicity IC50, NmuMG, CTG, CTG (cell titer-glo) readout, % error in parentheses
[21] = read-out: Cytotoxicity IC50, NmuMG, calcein, calcein AM readout, % error in parentheses
[22] = read-out: Cytotoxicity IC50, SK-OV-3, CTG, CTG (cell titer-glo) readout
[23] = read-out: Cytotoxicity IC50, SK-OV-3, calcein, calcein AM readout
[24] = read-out: Cytotoxicity IC50, NCI/ADR RES, CTG, CTG (cell titer-glo) readout
[25] = read-out: Cytotoxicity IC50, NCI/ADR RES, calcein, calcein AM readout
[26] = read-out: Cytotoxicity IC50, Du145, CTG, CTG (cell titer-glo) readout
[27] = read-out: Cytotoxicity IC50, Du145, calcein, calcein AM readout

Compound | IC50 [1, 10] | IC50 [1, 11] | IC50 [2, 12] | IC50 [2, 13] | IC50 [3, 14] | IC50 [3, 15] | IC50 [4, 16] | IC50 [4, 17] | IC50 [5, 18] | IC50 [5, 19] | IC50 [6, 20] | IC50 [6, 21] | IC50 [7, 22] | IC50 [7, 23] | IC50 [8, 24] | IC50 [8, 25] | IC50 [9, 26] | IC50 [9, 27]
COc1cc2c(c(OC)c1OC)-c1ccc(OC)c(=O)cc1[C@@H](NC(=O)CN(OC)[C@@H]1OC[C@@H](O)[C@H](O)[C@H]1O)CC2 [Col4, D-xyloside] | > 10 µM | > 3.35 µM | > 10 µM | > 10 µM | > 10 µM | > 10 µM | > 10 µM | > 10 µM | 8.26 µM | 8.93 µM | > 10 µM | > 10 µM | > 10 µM | > 10 µM | > 10 µM | > 10 µM | > 10 µM | > 10 µM
COc1cc2c(c(OC)c1OC)-c1ccc(OC)c(=O)cc1[C@@H](NC(=O)CN(OC)[C@@H]1O[C@H](CBr)[C@H](O)[C@H](O)[C@H]1O)CC2 [Col42, 6-deoxy-6-bromo-D-galactoside] | > 10 µM | > 10 µM | 4.4 µM | > 10 µM | 3.94 µM | 2.64 µM | 4.9 µM | 3.69 µM | 6.37 µM | 3.31 µM | 2.83 µM | 2.92 µM | 8.36 µM | > 10 µM | 2.49 µM | 2.23 µM | 4.47 µM | 4.26 µM
novioside [Col29] | 2.47 µM | 2.94 µM | 0.98 µM | 3.37 µM | 1.86 µM | 2.18 µM | 0.61 µM | 0.3 µM | 1.12 µM | 1.28 µM | > 5 µM | > 5 µM | 1.03 µM | 4.35 µM | 1.56 µM | 1.18 µM | 1.24 µM | 0.55 µM
COc1cc2c(c(OC)c1OC)-c1ccc(OC)c(=O)cc1[C@@H](NC(=O)CN(OC)[C@@H]1OC[C@@H](O)[C@H](O)[C@@H]1O)CC2 [Col1, D-lyxoside] | 3.5 µM | 3.69 µM | 4.51 µM | 3.93 µM | 2.91 µM | 1.21 µM | 1.9 µM | 1.33 µM | 3.86 µM | 4 µM | > 10 µM | 6.49 µM | 4 µM | 4 µM | 2.63 µM | 1.91 µM | 1.97 µM | 2 µM
COc1cc2c(c(OC)c1OC)-c1ccc(OC)c(=O)cc1[C@@H](NC(=O)CN(OC)[C@@H]1O[C@H](C)[C@H](O)[C@H](O)[C@H]1O)CC2 [Col9, D-fucoside] | > 10 µM | > 10 µM | > 10 µM | > 10 µM | > 10 µM | > 10 µM | > 9.96 µM | > 8.75 µM | > 10 µM | > 10 µM | > 10 µM | > 10 µM | > 10 µM | > 7.83 µM | > 10 µM | > 10 µM | > 10 µM | > 9.14 µM
COc1cc2c(c(OC)c1OC)-c1ccc(OC)c(=O)cc1C(NC(=O)CN(OC)C1OCC(O)C(O)C1O)CC2 [Col7, L-lyxoside] | 4.89 µM | 4.74 µM | 7.08 µM | 5.69 µM | > 10 µM | 9.76 µM | 2.65 µM | 3.99 µM | 4.97 µM | 4.9 µM | > 10 µM | > 10 µM | > 10 µM | 5.04 µM | > 10 µM | > 10 µM | > 10 µM | 4.73 µM
